Test results as given in PMC5241873, “The clinically approved antiviral drug sofosbuvir inhibits Zika virus replication” (Scientific Reports, 2017).

Key:
[1] = system: T1, recombinant ZVRP (C-terminal portion); assay: RdRp assay, labelled UTP incorporation on ZIKV RNA, ALPHA detection; type: biochemical, Zika virus; settings: 0.4 mM each ATP, GTP, CTP and labelled UTP; 3 mM MgCl2; pH 7.3; 30 °C; 1 h
T1 construct: gene NS5; pET-41b+ BamHI/SacI, N-terminal GST tag, E. coli BL21; B3U3M3 is printed for the 3D model only

[2] = system: T2, ZIKV RNA polymerase (ZVRP), partially purified from ZIKV-infected BHK-21 cells; assay: as above; type: biochemical, Zika virus; settings: 0.4 mM each ATP, GTP, CTP and labelled UTP; 3 mM MgCl2; pH 7.3; 30 °C; 1 h; partially purified enzyme
T2 construct: gene NS5; mature NS5 from the genome polyprotein; native, partially purified from infected BHK-21 cells (100,000 x g supernatant, DEAE- and phospho-cellulose)

Structure (SMILES)	IC50 [1]	IC50 [2]
Cc1cn([C@H]2C[C@H](N=[N+]=[N-])[C@@H](COP(=O)(O)OP(=O)(O)OP(=O)(O)O)O2)c(=O)[nH]c1=O [AZT-TP, AZT triphosphate]	> 10000 nM	> 10000 nM
NC(=O)c1ncn([C@@H]2O[C@H](COP(=O)(O)OP(=O)(O)OP(=O)(O)O)[C@@H](O)[C@H]2O)n1 [RTP, ribavirin triphosphate]	620 ± 50 nM	210 ± 60 nM
C[C@@]1(F)[C@H](O)[C@@H](COP(=O)(O)OP(=O)(O)OP(=O)(O)O)O[C@H]1n1ccc(=O)[nH]c1=O [STP, β-d-2′-deoxy-2′-α-fluoro-2′-β-C-methyluridine triphosphate]	610 ± 80 nM	380 ± 30 nM
